In patent US11472811B2, “Pyrazolotriazolopyrimidine derivatives as A2A receptor antagonist” (BEIGENE, LTD., priority 2018, dated 2022):

Molecular target: human A2A receptor (A2AR) (Homo sapiens (Human), UniProt P29274)
Test: Luciferase reporter assay (HEK293-A2AR-luc2p/CRE/Hygro cells)
Format: cell-based
Settings: 3 nM CGS21680, 5 h incubation
Experimental: HEK293 cells were maintained in Dulbecco's modified Eagle's medium (DMEM, Gibco) supplemented with 10% fetal bovine serum (FBS, Thermo Scientific), 100 units/mL penicillin (Gibco), and 0.1 mg/mL streptomycin (Gibco) in a humidified 37° C. environment with 5% CO2. Plasmid encoding wild-type human A2A receptor (A2AR) (in pcDNA3.1) was synthesized by Genscript (Nanjing, China). Transfection of the plasmids was performed in 6-well plates with 4×10^5 cells using Lipofectamin 2000 (ThermoFisher Scientific) according to the instruction of the manufacturer. Cell clones that stably express A2AR were established and maintained in the same complete medium as the HEK293 cells in addition of G-418 (Gibico). Expression level of A2AR in each single cell clone was determined using immunoblotting and FACS method. HEK293-A2AR stable cells were then transfected with pGL4.29[luc2P/CRE/Hygro] (Promega) luciferase reporter plasmid for establishing the HEK293-A2AR-luc2p/CRE/Hygro stable cell line.
HEK293-A2AR-luc2p/CRE/Hygro cells were seeded at a density of 5,000 cells/well in DMEM with 1% FBS and 1 U/mL adenosine deaminase (ADA) (Sigma). After 18 h, the cells were treated with 3 nM CGS21680 plus a series dilution of A2AR antagonist, the compounds disclosed herein at the concentration of 0.1˜10000 nM, prepared in DMEM with 1% FBS. After 5 h incubation, the luciferase activity in cells were measured using the Bright-Glo Luciferase Assay System (Promega) according to manufacturer's instructions. The luminescence signal was measured using a PHERAstar FS plate reader (BMG Labtech). […] Maximal luminescence intensity was determined in the presence of 3 nM CGS21680 and was set as 100%. The IC50 value was calculated from a dose dependent inhibition curve across the range of compound concentrations.

human A2A receptor (A2AR), sequence (P29274 whole entry): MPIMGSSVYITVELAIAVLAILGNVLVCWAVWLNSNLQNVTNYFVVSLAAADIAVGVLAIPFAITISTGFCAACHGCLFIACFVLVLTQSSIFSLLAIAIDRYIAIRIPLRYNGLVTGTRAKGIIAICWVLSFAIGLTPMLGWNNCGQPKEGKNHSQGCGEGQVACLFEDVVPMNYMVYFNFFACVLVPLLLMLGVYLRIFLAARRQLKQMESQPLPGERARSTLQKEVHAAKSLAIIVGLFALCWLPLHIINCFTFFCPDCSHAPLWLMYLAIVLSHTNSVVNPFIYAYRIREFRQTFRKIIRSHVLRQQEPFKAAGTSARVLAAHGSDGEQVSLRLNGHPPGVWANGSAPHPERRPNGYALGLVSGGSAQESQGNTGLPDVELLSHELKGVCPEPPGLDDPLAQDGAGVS

Structure (SMILES)	IC50
COCCNC(=O)C(C)(c1ccccc1)n1ncc2c1nc(N)n1nc(-c3ccco3)nc21 (stereo not drawn) [Example 39, 2-(5-amino-2-(furan-2-yl)-7H-pyrazolo[4,3-e][1,2,4]triazolo[1,5-c]pyrimidin-7-yl)-N-(2-methoxyethyl)-2-phenylpropanamide]	7.6 nM
CC(C(=O)NC1CC1)(c1ccccc1)n1ncc2c1nc(N)n1nc(-c3ccco3)nc21 (stereo not drawn) [Example 40, 2-(5-amino-2-(furan-2-yl)-7H-pyrazolo[4,3-e][1,2,4]triazolo[1,5-c]pyrimidin-7-yl)-N-cyclopropyl-2-phenylpropanamide]	14.9 nM
CC(C(=O)NCCN1CCOCC1)(c1ccccc1)n1ncc2c1nc(N)n1nc(-c3ccco3)nc21 (stereo not drawn) [Example 41, 2-(5-amino-2-(furan-2-yl)-7H-pyrazolo[4,3-e][1,2,4]triazolo[1,5-c]pyrimidin-7-yl)-N-(2-morpholinoethyl)-2-phenylpropanamide]	9.3 nM
CC(C(=O)NCc1ccc2c(c1)OCO2)(c1ccccc1)n1ncc2c1nc(N)n1nc(-c3ccco3)nc21 (stereo not drawn) [Example 42, 2-(5-amino-2-(furan-2-yl)-7H-pyrazolo[4,3-e][1,2,4]triazolo[1,5-c]pyrimidin-7-yl)-N-(benzo[d][1,3]dioxol-5-ylmethyl)-2-phenylpropanamide]	3.9 nM
CC(C(=O)NC1CCCCC1)(c1ccccc1)n1ncc2c1nc(N)n1nc(-c3ccco3)nc21 (stereo not drawn) [Example 43, 2-(5-amino-2-(furan-2-yl)-7H-pyrazolo[4,3-e][1,2,4]triazolo[1,5-c]pyrimidin-7-yl)-N-cyclohexyl-2-phenylpropanamide]	4.1 nM
COCCOc1ccc(N2CCN(CCNC(=O)C(C)(c3ccccc3)n3ncc4c3nc(N)n3nc(-c5ccco5)nc43)CC2)cc1 (stereo not drawn) [Example 44, 2-(5-amino-2-(furan-2-yl)-7H-pyrazolo[4,3-e][1,2,4]triazolo[1,5-c]pyrimidin-7-yl)-N-(2-(4-(4-(2-methoxyethoxy)phenyl)piperazin-1-yl)ethyl)-2-phenylpropanamide]	22.5 nM
CC(C(=O)NCCN1CCNCC1)(c1ccccc1)n1ncc2c1nc(N)n1nc(-c3ccco3)nc21 (stereo not drawn) [Example 45, 2-(5-amino-2-(furan-2-yl)-7H-pyrazolo[4,3-e][1,2,4]triazolo[1,5-c]pyrimidin-7-yl)-2-phenyl-N-(2-(piperazin-1-yl)ethyl)propanamide]	22.4 nM
COCCOc1ccc(N2CCC(NC(=O)C(C)(c3ccccc3)n3ncc4c3nc(N)n3nc(-c5ccco5)nc43)CC2)cc1 (stereo not drawn) [Example 46, 2-(5-amino-2-(furan-2-yl)-7H-pyrazolo[4,3-e][1,2,4]triazolo[1,5-c]pyrimidin-7-yl)-N-(1-(4-(2-methoxyethoxy)phenyl)piperidin-4-yl)-2-phenylpropanamide]	10.9 nM
CC(C(=O)N[C@H]1CCC[C@H]1O)(c1ccccc1)n1ncc2c1nc(N)n1nc(-c3ccco3)nc21 (stereo partly drawn) [Example 47, 2-(5-amino-2-(furan-2-yl)-7H-pyrazolo[4,3-e][1,2,4]triazolo[1,5-c]pyrimidin-7-yl)-N-((1S,2R)-2-hydroxycyclopentyl)-2-phenylpropanamide]	12.8 nM
CC(C(=O)N[C@@H]1CCC[C@@H]1O)(c1ccccc1)n1ncc2c1nc(N)n1nc(-c3ccco3)nc21 (stereo partly drawn) [Example 48, 2-(5-amino-2-(furan-2-yl)-7H-pyrazolo[4,3-e][1,2,4]triazolo[1,5-c]pyrimidin-7-yl)-N-((1R,2S)-2-hydroxycyclopentyl)-2-phenylpropanamide]	2.9 nM
C[C@@](C(=O)N[C@@H]1CCC[C@@H]1O)(c1ccccc1)n1ncc2c1nc(N)n1nc(-c3ccco3)nc21 [Example 48A, (S)-2-(5-amino-2-(furan-2-yl)-7H-pyrazolo[4,3-e][1,2,4]triazolo[1,5-c]pyrimidin-7-yl)-N-((1R,2S)-2-hydroxycyclopentyl)-2-phenylpropanamide]	12.6 nM
CC(C(=O)NCC1CCCO1)(c1ccccc1)n1ncc2c1nc(N)n1nc(-c3ccco3)nc21 (stereo not drawn) [Example 49, 2-(5-amino-2-(furan-2-yl)-7H-pyrazolo[4,3-e][1,2,4]triazolo[1,5-c]pyrimidin-7-yl)-2-phenyl-N-((tetrahydrofuran-2-yl)methyl)propanamide]	3.7 nM
CC(C(=O)NC[C@H]1CCCO1)(c1ccccc1)n1ncc2c1nc(N)n1nc(-c3ccco3)nc21 (stereo partly drawn) [Example 50, 2-(5-amino-2-(furan-2-yl)-7H-pyrazolo[4,3-e][1,2,4]triazolo[1,5-c]pyrimidin-7-yl)-2-phenyl-N—(((R)-tetrahydrofuran-2-yl)methyl)propanamide]	5.3 nM
CC(C(=O)NC[C@@H]1CCCO1)(c1ccccc1)n1ncc2c1nc(N)n1nc(-c3ccco3)nc21 (stereo partly drawn) [Example 51, 2-(5-amino-2-(furan-2-yl)-7H-pyrazolo[4,3-e][1,2,4]triazolo[1,5-c]pyrimidin-7-yl)-2-phenyl-N—(((S)-tetrahydrofuran-2-yl)methyl)propanamide]	2.7 nM
C[C@](C(=O)N[C@H]1CC[C@H](O)CC1)(c1ccccc1)n1ncc2c1nc(N)n1nc(-c3ccco3)nc21 [Example 52B, (R)-2-(5-amino-2-(furan-2-yl)-7H-pyrazolo[4,3-e][1,2,4]triazolo[1,5-c]pyrimidin-7-yl)-N-((trans)-4-hydroxycyclohexyl)-2-phenylpropanamide]	5 nM
CC(C(=O)NC[C@@H]1CCOC1)(c1ccccc1)n1ncc2c1nc(N)n1nc(-c3ccco3)nc21 (stereo partly drawn) [Example 53, 2-(5-amino-2-(furan-2-yl)-7H-pyrazolo[4,3-e][1,2,4]triazolo[1,5-c]pyrimidin-7-yl)-2-phenyl-N—(((S)-tetrahydrofuran-3-yl)methyl)propanamide]	12.5 nM
CC(C(=O)NC[C@H]1CCOC1)(c1ccccc1)n1ncc2c1nc(N)n1nc(-c3ccco3)nc21 (stereo partly drawn) [Example 54, 2-(5-amino-2-(furan-2-yl)-7H-pyrazolo[4,3-e][1,2,4]triazolo[1,5-c]pyrimidin-7-yl)-2-phenyl-N—(((R)-tetrahydrofuran-3-yl)methyl)propanamide]	8.1 nM
CC(C(=O)NCCO)(c1ccccc1)n1ncc2c1nc(N)n1nc(-c3ccco3)nc21 (stereo not drawn) [Example 55, 2-(5-amino-2-(furan-2-yl)-7H-pyrazolo[4,3-e][1,2,4]triazolo[1,5-c]pyrimidin-7-yl)-N-(2-hydroxyethyl)-2-phenylpropanamide]	13.8 nM
CC(C(=O)N[C@H]1CCCC[C@H]1O)(c1ccccc1)n1ncc2c1nc(N)n1nc(-c3ccco3)nc21 (stereo partly drawn) [Example 56, 2-(5-amino-2-(furan-2-yl)-7H-pyrazolo[4,3-e][1,2,4]triazolo[1,5-c]pyrimidin-7-yl)-N-((1S,2R)-2-hydroxycyclohexyl)-2-phenylpropanamide]	10.9 nM
CC(C(=O)N[C@H]1CCCC[C@@H]1O)(c1ccccc1)n1ncc2c1nc(N)n1nc(-c3ccco3)nc21 (stereo partly drawn) [Example 57, 2-(5-amino-2-(furan-2-yl)-7H-pyrazolo[4,3-e][1,2,4]triazolo[1,5-c]pyrimidin-7-yl)-N-((1S,2S)-2-hydroxycyclohexyl)-2-phenylpropanamide]	29 nM
CC(C(=O)N[C@@H]1CCCC[C@@H]1O)(c1ccccc1)n1ncc2c1nc(N)n1nc(-c3ccco3)nc21 (stereo partly drawn) [Example 58, 2-(5-amino-2-(furan-2-yl)-7H-pyrazolo[4,3-e][1,2,4]triazolo[1,5-c]pyrimidin-7-yl)-N-((1R,2S)-2-hydroxycyclohexyl)-2-phenylpropanamide]	1.8 nM
